Measurements: patent publication US8377884B2, “Variants of C-type natriuretic peptides” (Biomarin Pharmaceutical Inc., priority 2007, dated 2013)
“Also recorded” adds a separate entry of the source. Like-named read-outs stand apart in the source and are kept apart here. Bridge positions count the residues as written; N and C are the ends. Peptide text beside a SMILES is read from it. * marks the point of attachment. CH3O(CH2CH2O)11CH2CH2CO = COCCOCCOCCOCCOCCOCCOCCOCCOCCOCCOCCOCCC(=O)*

How the values were obtained:
Recombinant human NEP = Recombinant human NEP (Homo sapiens, UniProt P08473); assay: In vitro neutral endopeptidase (NEP) cleavage assay; details: for NEP Cleavage (t1/2, min): pH 7
Chain of Recombinant human NEP (P08473 whole entry): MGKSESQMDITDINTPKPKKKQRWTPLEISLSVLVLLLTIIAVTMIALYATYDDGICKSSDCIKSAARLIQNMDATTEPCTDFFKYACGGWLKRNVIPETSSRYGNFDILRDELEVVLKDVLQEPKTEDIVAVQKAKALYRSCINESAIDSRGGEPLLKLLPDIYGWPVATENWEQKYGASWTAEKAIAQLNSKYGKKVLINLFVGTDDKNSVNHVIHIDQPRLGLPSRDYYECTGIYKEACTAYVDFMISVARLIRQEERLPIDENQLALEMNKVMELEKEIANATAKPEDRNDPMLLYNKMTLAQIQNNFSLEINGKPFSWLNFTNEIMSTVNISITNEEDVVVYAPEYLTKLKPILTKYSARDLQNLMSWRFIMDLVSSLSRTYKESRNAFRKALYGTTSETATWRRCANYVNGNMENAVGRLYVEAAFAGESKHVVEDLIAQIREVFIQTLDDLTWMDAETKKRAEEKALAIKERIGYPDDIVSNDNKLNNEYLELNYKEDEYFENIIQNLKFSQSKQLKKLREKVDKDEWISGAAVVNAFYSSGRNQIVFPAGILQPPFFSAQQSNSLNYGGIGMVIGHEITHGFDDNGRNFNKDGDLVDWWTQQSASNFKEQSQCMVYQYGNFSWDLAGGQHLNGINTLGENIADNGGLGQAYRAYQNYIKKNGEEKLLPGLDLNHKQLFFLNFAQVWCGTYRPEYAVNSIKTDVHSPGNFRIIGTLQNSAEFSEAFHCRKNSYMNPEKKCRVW
Summary of the method: (§1)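 Recombinant human NEP (1 ug/mL final) incubated with 100 uM CNP variant in 0.1 M Tris, pH 7, at 37° C for various times, then quenched with EDTA (10 mM final) and heat. Samples reduced and analysed by HPLC and mass spectrometry. Half-life derived from loss of intact variant over time.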

[1] = molecular target: neutral endopeptidase (NEP) (Homo sapiens, UniProt P08473); assay: as above; details: human, pH 7
Chain of neutral endopeptidase (NEP) (P08473 whole entry): as above
Summary of the method: as §1

NPR-B = molecular target: T1, NPR-B (Mus musculus, UniProt Q6VVW5); assay: Stimulation of cGMP production in NIH3T3 cells; format: cell-based, Murine; details: for cGMP response relative to 1 uM CNP22 (%) at 0.01 µM: read-out: cGMP Response rel. to 1 uM CNP22, 10 nM; for cGMP response relative to 1 uM CNP22 (%) at 1 µM: read-out: cGMP Response rel. to 1 uM CNP22, 1 uM
T1 construct: Murine NIH3T3 cells express endogenously the CNP signaling receptor, NPR-B; endogenous in cells; host or cells: NIH3T3 (murine fibroblasts)
T1 sequence (Q6VVW5 17-1047): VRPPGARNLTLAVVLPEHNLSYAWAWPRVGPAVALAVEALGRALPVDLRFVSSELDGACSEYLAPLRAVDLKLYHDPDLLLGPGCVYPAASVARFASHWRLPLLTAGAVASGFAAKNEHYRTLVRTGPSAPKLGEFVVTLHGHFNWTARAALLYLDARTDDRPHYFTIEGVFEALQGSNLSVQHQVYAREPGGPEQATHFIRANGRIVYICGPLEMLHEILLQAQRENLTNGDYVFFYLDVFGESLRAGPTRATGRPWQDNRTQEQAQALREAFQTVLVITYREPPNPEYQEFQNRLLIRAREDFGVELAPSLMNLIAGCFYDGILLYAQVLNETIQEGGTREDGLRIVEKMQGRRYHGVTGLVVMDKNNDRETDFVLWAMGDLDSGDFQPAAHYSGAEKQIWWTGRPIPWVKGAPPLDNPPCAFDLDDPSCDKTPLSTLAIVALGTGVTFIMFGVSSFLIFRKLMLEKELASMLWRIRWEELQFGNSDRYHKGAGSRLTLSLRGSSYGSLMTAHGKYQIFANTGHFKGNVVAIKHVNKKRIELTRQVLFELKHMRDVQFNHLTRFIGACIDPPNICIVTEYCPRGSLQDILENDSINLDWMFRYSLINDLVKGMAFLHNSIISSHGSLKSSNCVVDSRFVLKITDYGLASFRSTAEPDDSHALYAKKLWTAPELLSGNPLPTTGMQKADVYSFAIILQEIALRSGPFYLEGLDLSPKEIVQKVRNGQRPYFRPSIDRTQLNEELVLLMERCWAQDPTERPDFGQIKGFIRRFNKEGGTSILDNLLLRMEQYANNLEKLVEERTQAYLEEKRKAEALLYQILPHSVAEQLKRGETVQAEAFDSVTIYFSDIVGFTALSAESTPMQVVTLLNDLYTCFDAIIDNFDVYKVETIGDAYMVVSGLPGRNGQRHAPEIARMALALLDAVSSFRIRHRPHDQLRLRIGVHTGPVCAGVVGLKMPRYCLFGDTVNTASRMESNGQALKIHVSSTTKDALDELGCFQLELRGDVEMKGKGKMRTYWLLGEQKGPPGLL

[2] = in vitro NEP cleavage assay, assay period 160 minutes
[3] = NIH3T3 cells, 10 nM natriuretic peptide, normalized to cell number and cGMP production with 1 uM wtCNP22
[4] = NIH3T3 cells, 1 uM natriuretic peptide, normalized to cell number and cGMP production with 1 uM wtCNP22

cGMP Response rel. to 1 uM CNP22, 10 nM (NPR-B; [3])	cGMP Response rel. to 1 uM CNP22, 1 uM (NPR-B; [4])	Compound	resistance to NEP cleavage/degradation (in words) (Recombinant human NEP; [2])	half-life at 100 uM [1]	cGMP response relative to 1 uM CNP22 (%) at 0.01 µM (NPR-B; NIH3T3, […])	cGMP response relative to 1 uM CNP22 (%) at 1 µM (NPR-B; NIH3T3, […])	resistance to NEP cleavage/degradation (in words) (Recombinant human NEP)	NEP Cleavage (t1/2, min) (Recombinant human NEP)	further results
		CC[C@H](C)[C@@H]1NC(=O)[C@H](CCCNC(=N)N)NC(=O)[C@H](CC(=O)O)NC(=O)[C@H](CC(C)C)NC(=O)[C@H](CCCCN)NC(=O)[C@H](CC(C)C)NC(=O)CNC(=O)[C@H](Cc2ccccc2)NC(=O)[C@@H](NC(=O)CNC(=O)[C@H](CCCNC(=N)N)NC(=O)[C@H](CO)NC(=O)[C@H](CC(C)C)NC(=O)CN)CSSC[C@@H](C(=O)O)NC(=O)CNC(=O)[C@H](CC(C)C)NC(=O)CNC(=O)[C@H](CO)NC(=O)[C@H](CCSC)NC(=O)[C@H](CO)NC(=O)[C@H](CC(N)=O)NC1=O [BJ] (H-GLSRGCFGLKLDRINSMSGLGC-OH; disulfide 6-22 (inferred); N-terminus and C-terminus assumed)	greatest resistance to NEP cleavage	2.5 h	4%	41%			
		CC[C@H](C)[C@@H]1NC(=O)[C@H](CCCNC(=N)N)NC(=O)[C@H](CC(=O)O)NC(=O)[C@H](CC(C)C)NC(=O)[C@H](CCCCN)NC(=O)[C@H](CC(C)C)NC(=O)CNC(=O)[C@H](Cc2ccccc2)NC(=O)[C@@H](NC(=O)CNC(=O)[C@H](CCCNC(=N)N)NC(=O)[C@H](CO)NC(=O)[C@H](CC(C)C)NC(=O)CN)CSSC[C@@H](C(=O)O)NC(=O)CNC(=O)[C@H](CC(C)C)NC(=O)CNC(=O)[C@H](CO)NC(=O)[C@H](CCSC)NC(=O)[C@H](CO)NC(=O)[C@H](CO)NC1=O [BK] (H-GLSRGCFGLKLDRISSMSGLGC-OH; disulfide 6-22 (inferred); N-terminus and C-terminus assumed)	greatest resistance to NEP cleavage	≥ 2.67 h	13 ± 1%	71 ± 11%			
		CC[C@H](C)[C@@H]1NC(=O)[C@H](CCCNC(=N)N)NC(=O)[C@H](CC(=O)O)NC(=O)[C@H](CC(C)C)NC(=O)[C@H](CCCCN)NC(=O)[C@H](CC(C)C)NC(=O)CNC(=O)[C@H](Cc2ccccc2)NC(=O)[C@@H](NC(=O)CNC(=O)[C@H](CO)NC(=O)CNC(=O)[C@H](CCC(N)=O)NC(=O)[C@@H](NC(=O)[C@H](CCSC)NC(=O)[C@H](CCCCN)NC(=O)[C@@H]2CCCN2C(=O)[C@@H](N)CO)C(C)C)CSSC[C@@H](C(=O)N[C@@H](CCCCN)C(=O)N[C@H](C(=O)N[C@@H](CC(C)C)C(=O)N[C@@H](CCCNC(=N)N)C(=O)N[C@@H](CCCNC(=N)N)C(=O)N[C@@H](Cc2c[nH]cn2)C(=O)O)C(C)C)NC(=O)CNC(=O)[C@H](CC(C)C)NC(=O)CNC(=O)[C@H](CO)NC(=O)[C@H](CCSC)NC(=O)[C@H](CO)NC(=O)CNC1=O [CD] (H-SPKMVQGSGCFGLKLDRIGSMSGLGCKVLRRH-OH; disulfide 10-26 (inferred); N-terminus and C-terminus assumed)					much more resistant to NEP cleavage than CNP22		cGMP response relative to 1 uM CNP22 (%) at 0.01 µM (NPR-B; [3]): 25%; cGMP response relative to 1 uM CNP22 (%) at 1 µM (NPR-B; [4]): 102%
		CC[C@H](C)[C@@H]1NC(=O)[C@H](CCCNC(=N)N)NC(=O)[C@H](CC(=O)O)NC(=O)[C@H](CC(C)C)NC(=O)[C@H](CCCCN)NC(=O)[C@H](CC(C)C)NC(=O)CNC(=O)[C@H](Cc2ccccc2)NC(=O)[C@@H](NC(=O)CNC(=O)[C@H](CCCCN)NC(=O)[C@H](CO)NC(=O)[C@H](CC(C)C)NC(=O)CNC(=O)[C@H](CCC(N)=O)NC(=O)[C@H](CO)NC(=O)[C@H](CC(C)C)NC(=O)[C@H](CCCNC(=N)N)NC(=O)[C@H](C)NC(=O)[C@@H](NC(=O)[C@H](C)NC(=O)[C@H](Cc2c[nH]c3ccccc23)NC(=O)[C@H](C)NC(=O)[C@H](CCCCN)NC(=O)[C@H](Cc2ccccc2)NC(=O)[C@H](C)NC(=O)[C@H](CCCNC(=N)N)NC(=O)[C@H](CCC(=O)O)NC(=O)CN)C(C)C)CSSC[C@@H](C(=O)O)NC(=O)CNC(=O)[C@H](CC(C)C)NC(=O)CNC(=O)[C@H](CO)NC(=O)[C@H](CCSC)NC(=O)[C@H](CO)NC(=O)CNC1=O [CE] (H-GERAFKAWAVARLSQGLSKGCFGLKLDRIGSMSGLGC-OH; disulfide 21-37 (inferred); N-terminus and C-terminus assumed)					much more resistant to NEP cleavage than CNP22		cGMP response relative to 1 uM CNP22 (%) at 0.01 µM (NPR-B; [3]): 15%; cGMP response relative to 1 uM CNP22 (%) at 1 µM (NPR-B; [4]): 87%
		CC[C@H](C)[C@@H]1NC(=O)[C@H](CCCNC(=N)N)NC(=O)[C@H](CC(=O)O)NC(=O)[C@H](CC(C)C)NC(=O)[C@H](CCCCN)NC(=O)[C@H](CC(C)C)NC(=O)CNC(=O)[C@H](Cc2ccccc2)NC(=O)[C@@H](NC(=O)CNC(=O)[C@H](CCCCN)NC(=O)[C@H](CO)NC(=O)[C@H](CC(C)C)NC(=O)CNC(=O)[C@H](CO)NC(=O)[C@@H]2CCCN2C(=O)[C@@H]2CCCN2C(=O)[C@H](CC(C)C)NC(=O)[C@@H](NC(=O)[C@H](Cc2ccc(O)cc2)NC(=O)[C@@H](NC(=O)[C@H](CCC(N)=O)NC(=O)[C@@H]2CCCN2C(=O)[C@H](CCC(=O)O)NC(=O)[C@H](CCCNC(=N)N)NC(=O)[C@@H]2CCCN2C(=O)[C@H](CCC(N)=O)NC(=O)CN)C(C)C)[C@@H](C)O)CSSC[C@@H](C(=O)O)NC(=O)CNC(=O)[C@H](CC(C)C)NC(=O)CNC(=O)[C@H](CO)NC(=O)[C@H](CCSC)NC(=O)[C@H](CO)NC(=O)CNC1=O [CF] (H-GQPREPQVYTLPPSGLSKGCFGLKLDRIGSMSGLGC-OH; disulfide 20-36 (inferred); N-terminus and C-terminus assumed)	most resistant to NEP degradation; also recorded: much more resistant to NEP cleavage than CNP22	> 2.67 h	23 ± 9%	72 ± 19%			
		CC[C@H](C)[C@@H]1NC(=O)[C@H](CCCNC(=N)N)NC(=O)[C@H](CC(=O)O)NC(=O)[C@H](CC(C)C)NC(=O)[C@H](CCCCN)NC(=O)[C@H](CC(C)C)NC(=O)CNC(=O)[C@H](Cc2ccccc2)NC(=O)[C@@H](NC(=O)CNC(=O)[C@H](CCCNC(=N)N)NC(=O)[C@H](CO)NC(=O)[C@H](CC(C)C)NC(=O)CNC(=O)[C@H](CCCNC(=N)N)NC(=O)[C@@H]2CCCN2C(=O)[C@H](CC(N)=O)NC(=O)[C@H](C)NC(=O)CNC(=O)CCOCCOCCOCCOCCOCCOCCOCCOCCOCCOCCOCCOC)CSSC[C@@H](C(=O)O)NC(=O)CNC(=O)[C@H](CC(C)C)NC(=O)CNC(=O)[C@H](CO)NC(=O)[C@H](CCSC)NC(=O)[C@H](CO)NC(=O)CNC1=O [PEO12-GANPR-CNP22, K4R] ({CH3O(CH2CH2O)11CH2CH2CO}-GANPRGLSRGCFGLKLDRIGSMSGLGC-OH; disulfide 11-27; C-terminus assumed)					same half-life as wtCNP22		half-life at 100 uM ([1]; recombinant human neutral endopeptidase (NEP)): 1.33 h
15 ± 3	68 ± 17	PEG1K-CNP22: CNP22 conjugated at the N-terminus to polydispersed PEG1K						>>160 min	
8 ± 1	20 ± 7	PEG5K-CNP22: CNP22 conjugated at the N-terminus to polydispersed PEG5K					resistant to NEP degradation over the assay period of 160 minutes	>>160 min	
0	15	PEG20K-CNP22: CNP22 conjugated at the N-terminus to polydispersed PEG20K						>>160 min	

Compound	cGMP Response rel. to 1 uM CNP22, 10 nM (NPR-B; [3])	cGMP Response rel. to 1 uM CNP22, 1 uM (NPR-B; [4])	resistance to NEP cleavage/degradation (in words) (Recombinant human NEP; [2])	half-life at 100 uM [1]	cGMP response relative to 1 uM CNP22 (%) at 0.01 µM (NPR-B; NIH3T3, […])	cGMP response relative to 1 uM CNP22 (%) at 1 µM (NPR-B; NIH3T3, […])	resistance to NEP cleavage/degradation (in words) (Recombinant human NEP)	NEP Cleavage (t1/2, min) (Recombinant human NEP)	further results
PEG2K-CNP22: CNP22 conjugated at the N-terminus to polydispersed PEG2K	6 ± 2	32 ± 4						>>160 min	
